In paper PMC12064818, “A general assay platform to study protein pharmacology using ligand-dependent structural dynamics” (Nature Communications, 2025):

Target: firefly luciferase (FLuc) (Photinus pyralis, UniProt P08659)
Assay: Thermal shift profiles (Thermofluor assay), FLuc;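 on Thermofluor FLuc, No ATP: normalized first derivative of fluorescence (dF/dT) at the stated temperature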
Type: binding
Parameters: unit of the concentration uncertain
Conditions: compound 100 (unit uncertain); for Thermofluor FLuc, ATP: ATP (2 (unit uncertain))

Sequence of firefly luciferase (FLuc) (P08659 whole entry): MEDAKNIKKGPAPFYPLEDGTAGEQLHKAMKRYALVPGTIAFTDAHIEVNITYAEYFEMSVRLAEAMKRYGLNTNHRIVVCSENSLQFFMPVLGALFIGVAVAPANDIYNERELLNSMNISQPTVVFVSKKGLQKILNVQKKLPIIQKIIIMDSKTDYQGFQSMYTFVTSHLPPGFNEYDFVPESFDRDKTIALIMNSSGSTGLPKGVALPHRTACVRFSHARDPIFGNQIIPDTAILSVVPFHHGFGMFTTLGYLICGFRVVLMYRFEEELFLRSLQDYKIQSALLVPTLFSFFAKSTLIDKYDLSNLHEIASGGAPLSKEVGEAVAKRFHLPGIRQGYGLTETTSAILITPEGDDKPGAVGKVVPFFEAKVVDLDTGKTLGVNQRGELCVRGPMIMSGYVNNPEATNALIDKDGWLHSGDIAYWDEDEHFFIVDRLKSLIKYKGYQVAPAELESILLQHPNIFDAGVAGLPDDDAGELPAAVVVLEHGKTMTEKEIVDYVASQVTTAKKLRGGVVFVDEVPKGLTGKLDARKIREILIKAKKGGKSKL

COc1ccc(NC(=O)C2CCN(C(=O)c3ncn4c3COC(c3ccccc3)C4)CC2)cc1Cl (centres unmarked) [NCGC 00449919]
Thermofluor FLuc, No ATP (20.000 °C): 0.250
Thermofluor FLuc, ATP (20.000 °C): 0.934
Thermofluor FLuc, No ATP (20.993 °C): 0.185
Thermofluor FLuc, ATP (20.993 °C): 0.955
Thermofluor FLuc, No ATP (21.987 °C): 0.201
Thermofluor FLuc, ATP (21.987 °C): 0.975
Thermofluor FLuc, No ATP (22.980 °C): 0.152
Thermofluor FLuc, ATP (22.980 °C): 0.992
Thermofluor FLuc, No ATP (23.974 °C): 0.098
Thermofluor FLuc, ATP (23.974 °C): 1
Thermofluor FLuc, No ATP (24.967 °C): 0.101
Thermofluor FLuc, ATP (24.967 °C): 0.999
Thermofluor FLuc, No ATP (25.960 °C): 0.104
Thermofluor FLuc, ATP (25.960 °C): 0.991
Thermofluor FLuc, No ATP (26.954 °C): 0.059
Thermofluor FLuc, ATP (26.954 °C): 0.977
Thermofluor FLuc, No ATP (27.947 °C): 0.054
Thermofluor FLuc, ATP (27.947 °C): 0.961
Thermofluor FLuc, No ATP (28.940 °C): 0.030
Thermofluor FLuc, ATP (28.940 °C): 0.943
Thermofluor FLuc, No ATP (29.934 °C): 0.043
Thermofluor FLuc, ATP (29.934 °C): 0.925
Thermofluor FLuc, No ATP (30.927 °C): 0.015
Thermofluor FLuc, ATP (30.927 °C): 0.906
Thermofluor FLuc, No ATP (31.921 °C): 0.031
Thermofluor FLuc, ATP (31.921 °C): 0.886
Thermofluor FLuc, No ATP (32.914 °C): 0.002
Thermofluor FLuc, ATP (32.914 °C): 0.862
Thermofluor FLuc, No ATP (33.907 °C): 0.008
Thermofluor FLuc, ATP (33.907 °C): 0.832
Thermofluor FLuc, No ATP (34.901 °C): 0.005
Thermofluor FLuc, ATP (34.901 °C): 0.793
Thermofluor FLuc, No ATP (35.894 °C): 0.014
Thermofluor FLuc, ATP (35.894 °C): 0.741
Thermofluor FLuc, No ATP (36.887 °C): 0.000
Thermofluor FLuc, ATP (36.887 °C): 0.675
Thermofluor FLuc, No ATP (37.881 °C): 0.036
Thermofluor FLuc, ATP (37.881 °C): 0.591
Thermofluor FLuc, No ATP (38.874 °C): 0.034
Thermofluor FLuc, ATP (38.874 °C): 0.492
Thermofluor FLuc, No ATP (39.868 °C): 0.075
Thermofluor FLuc, ATP (39.868 °C): 0.38
Thermofluor FLuc, No ATP (40.861 °C): 0.126
Thermofluor FLuc, ATP (40.861 °C): 0.264
Thermofluor FLuc, No ATP (41.854 °C): 0.197
Thermofluor FLuc, ATP (41.854 °C): 0.155
Thermofluor FLuc, No ATP (42.848 °C): 0.295
Thermofluor FLuc, ATP (42.848 °C): 0.067
Thermofluor FLuc, No ATP (43.841 °C): 0.412
Thermofluor FLuc, ATP (43.841 °C): 0.013
Thermofluor FLuc, No ATP (44.835 °C): 0.542
Thermofluor FLuc, ATP (44.835 °C): 0
Thermofluor FLuc, No ATP (45.828 °C): 0.677
Thermofluor FLuc, ATP (45.828 °C): 0.03
Thermofluor FLuc, No ATP (46.821 °C): 0.764
Thermofluor FLuc, ATP (46.821 °C): 0.099
Thermofluor FLuc, No ATP (47.815 °C): 0.849
Thermofluor FLuc, ATP (47.815 °C): 0.195
Thermofluor FLuc, No ATP (48.808 °C): 0.904
Thermofluor FLuc, ATP (48.808 °C): 0.306
Thermofluor FLuc, No ATP (50.795 °C): 0.949
Thermofluor FLuc, ATP (50.795 °C): 0.532
Thermofluor FLuc, No ATP (51.788 °C): 1.000
Thermofluor FLuc, ATP (51.788 °C): 0.632
Thermofluor FLuc, ATP (52.782 °C): 0.721
Thermofluor FLuc, No ATP (53.775 °C): 1.000
Thermofluor FLuc, ATP (53.775 °C): 0.796
Thermofluor FLuc, No ATP (54.768 °C): 0.991
Thermofluor FLuc, ATP (54.768 °C): 0.857
Thermofluor FLuc, No ATP (55.762 °C): 0.972
Thermofluor FLuc, ATP (55.762 °C): 0.903
Thermofluor FLuc, No ATP (56.755 °C): 0.954
Thermofluor FLuc, ATP (56.755 °C): 0.933
Thermofluor FLuc, No ATP (57.748 °C): 0.930
Thermofluor FLuc, ATP (57.748 °C): 0.95
Thermofluor FLuc, No ATP (58.742 °C): 0.908
Thermofluor FLuc, ATP (58.742 °C): 0.958
Thermofluor FLuc, No ATP (59.735 °C): 0.892
Thermofluor FLuc, ATP (59.735 °C): 0.959
Thermofluor FLuc, No ATP (60.729 °C): 0.925
Thermofluor FLuc, ATP (60.729 °C): 0.959
Thermofluor FLuc, No ATP (61.722 °C): 0.872
Thermofluor FLuc, ATP (61.722 °C): 0.958
Thermofluor FLuc, No ATP (62.715 °C): 0.877
Thermofluor FLuc, ATP (62.715 °C): 0.96
Thermofluor FLuc, No ATP (63.709 °C): 0.837
Thermofluor FLuc, ATP (63.709 °C): 0.963
Thermofluor FLuc, No ATP (65.695 °C): 0.837
Thermofluor FLuc, ATP (65.695 °C): 0.975
Thermofluor FLuc, No ATP (66.689 °C): 0.789
Thermofluor FLuc, ATP (66.689 °C): 0.981
Thermofluor FLuc, No ATP (68.676 °C): 0.772
Thermofluor FLuc, ATP (68.676 °C): 0.992
Thermofluor FLuc, No ATP (69.669 °C): 0.774
Thermofluor FLuc, ATP (69.669 °C): 0.996
Thermofluor FLuc, No ATP (70.662 °C): 0.720
Thermofluor FLuc, ATP (70.662 °C): 0.998
Thermofluor FLuc, No ATP (71.656 °C): 0.708
Thermofluor FLuc, ATP (71.656 °C): 0.999
Thermofluor FLuc, No ATP (72.649 °C): 0.718
Thermofluor FLuc, ATP (72.649 °C): 0.999
Thermofluor FLuc, No ATP (73.643 °C): 0.669
Thermofluor FLuc, ATP (73.643 °C): 0.998
Thermofluor FLuc, No ATP (74.636 °C): 0.675
Thermofluor FLuc, ATP (74.636 °C): 0.997
Thermofluor FLuc, No ATP (75.629 °C): 0.640
Thermofluor FLuc, ATP (75.629 °C): 0.995
